# Data: patent US20260272797A1, “FRAGRANCE COMPOSITION” (GIVAUDAN SA, priority 2023, published 2026)
# Key:
# [1] = Gas-phase evaluation of each fragrance ingredient alone against model scalp malodour, MiniVAS device, panel of 5 experts; details: for Scalp MOC of ingredient alone: expert description
# Method: In a first set of experiments, the scalp malodour counteractancy of 173 fragrance ingredients was evaluated by panel of 5 experts.
# The evaluation was performed in the gas phase, using a MiniVAS™ device (ex Givaudan SA). This device is a regulating means that comprises a plurality of channels adapted to convey a gas (more particularly air) through cartridges, each cartridge containing a fragrance ingredient adsorbed onto an adsorbent. The air flows coming from the different cartridges are admixed and conveyed to the user's nose through a tubing fitted with an olfactometer funnel. Thus, by opening and closing channels and maintaining these opened and closed, respectively, for predetermined times, the regulating means can determine which fragrance ingredients and how much thereof are conveyed and when, and thus alter the nature of the fragrance perceived by the user. A description of the device can be found in WO2014154909A1, page 2, line 11 to page 4, line 7, and in H. R. Gygax et al. “Evolution of Real Time Aroma Creation at Givaudan”, poster presented at the 12th Weurman Flavour Research Symposium. July 2008. Interlaken, Switzerland; DOI: 10.13140/2.1.1924.0641.
# For the sake of the present evaluation, one cartridge contained the scalp malodour (in the form of a model malodour) and each fragrance ingredient was assigned to another cartridge. The malodour counteractancy of each fragrance ingredient was evaluated separately against the scalp malodour. A constant air flow rate of 50 ml/min was used for all measurements. The perceived malodour intensity, as well as the fragrance intensity, were ranked on a scale of 1-5 (1=barely noticeable, 2=weak, 3=medium, 4=strong and 5=very strong).
# [2] = Impact of fragrance ingredients on scalp malodour counteractancy of 80 fragrance compositions (Example 2 protocol, statistical presence); details: series of 80 fragrance compositions
# Method: In a second set of experiments, the impact of these fragrance ingredients on the scalp malodour counteractancy of a fragrance composition was assessed. The scalp malodour counteractancy of a series of 80 fragrance compositions was assessed by performing the evaluation protocol described in Example 2. […] Ingredients that were statistically more present in fragrances having a high malodour counteractancy were assigned a positive status, whereas ingredients that were statistically more present in compositions having a low malodour counteractancy were assigned a negative status.
# [3] = Table 4, air flow 50 ml/min, scale of 1-5
# [4] = Table 3, air flow 50 ml/min, scale of 1-5 (1=barely noticeable, 5=very strong)
Structure (SMILES),"MO intensity [1, 3]",Impact on scalp MOC of fragrance composition ([2]; Table 4),"MO intensity [1, 4]",Impact on scalp MOC of fragrance composition ([2]; Table 3),"Scalp MOC of ingredient alone ([1]; Table 3, gas phase)","Scalp MOC of ingredient alone ([1]; Table 4, gas phase)"
"CC1CC(C)(c2ccccc2)OC(C)O1 (centres unmarked) [2,4,6-trimethyl-4-phenyl-1,3-dioxane]",1,Negative,,,,
CC(=O)C(C)O (centres unmarked) [3-hydroxybutan-2-one],,,4,Positive,,
"CC(=O)C1(C)CC2=C(CCCC2(C)C)CC1C (centres unmarked) [1-(2,3,8,8-tetramethyl-1,2,3,4,5,6,7,8-octahydronaphthalen-2-yl)ethanone]",,,1,Positive,No effect,
CCCCCCC(=O)OCC [ethyl heptanoate],,,1,Positive,No effect,
CC(C)c1ccc(CO)cc1 [(4-isopropylphenyl)methanol],,,2,Positive,,
CC(=O)OCCc1ccccc1 [2-phenylethyl acetate],1,Negative,,,,
"CC1=CC[C@H]2C(C1)C1CC2[C@@]2(C1)OC2C (stereo partly drawn) [(2R,8aS)-3′,6-dimethyl-3,4,4a,5,8,8a-hexahydro-1H-spiro[1,4-methanonaphthalene-2,2′-oxirane]]",,,1,Positive,No effect,
CCOC(=O)C1OC1(C)c1ccccc1 (centres unmarked) [ethyl methyl phenyl glycidate],1,Negative,,,,
"O=CCC/C=C1\CC2CC1[C@H]1CCC[C@@H]21 (stereo partly drawn) [(E)-4-((3aS,7aS)-hexahydro-1H-4,7-methanoinden-5(6H)-ylidene)butanal]",,,2.5,Positive,,
"C/C=C/C(=O)C1=C(C)CCCC1(C)C [(E)-1-(2,6,6-trimethyl-1-cyclohexenyl)but-2-en-1-one]",,,2.8,Positive,Coverage,
CC(C)C(=O)OCCOc1ccccc1 [2-(phenoxy)ethyl 2-methylpropanoate],2.3,Negative,,,,
"CCOC(=O)C1=C(C)C=CCC1(C)C [ethyl 2,6,6-trimethylcyclohexa-1,3-diene-1-carboxylate]",1,Negative,,,,
"CC(=O)/C=C/C1=C(C)CCCC1(C)C [(E)-4-(2,6,6-trimethylcyclohex-1-en-1-yl)but-3-en-2-one]",1,Negative,,,,
Cc1cc(CC(C)C)ccc1CCC=O [3-(4-(2-methylpropyl)-2-methylphenyl)propanal],,,2.8,Positive,,
CCC1OC(C)=C(O)C1=O (centres unmarked) [2-ethyl-4-hydroxy-5-methylfuran-3(2H)-one],4.5,Negative,,,,
CCCCCCCCCCC=O [undecanal],1,Negative,,,,Enhances MO
CC(C)=CCCC1=CCC(C=O)CC1 (centres unmarked) [4-(4-methylpent-3-en-1-yl)cyclohex-3-enecarbaldehyde],1,Negative,,,,

Structure (SMILES),"MO intensity [1, 3]",Impact on scalp MOC of fragrance composition ([2]; Table 4),"MO intensity [1, 4]",Impact on scalp MOC of fragrance composition ([2]; Table 3),"Scalp MOC of ingredient alone ([1]; Table 3, gas phase)","Scalp MOC of ingredient alone ([1]; Table 4, gas phase)"
"C[C@@H]1CC[C@H]2C(C)(C)[C@H]3C[C@@]12CC1OC(C)(C)OC13C (stereo partly drawn) [(4aR,5R,7aS,9R)-Octahydro-2,2,5,8,8,9a-hexamethyl-4H-4a,9-methanoazuleno[5,6-d]-1,3-dioxole]",,,4,Positive,,
CCCCCCC#CC(=O)OC [methyl non-2-ynoate],,,1.8,Positive,,
"CCC(=O)O[C@H]1CC2CC1[C@H]1CC=C[C@@H]21 (stereo partly drawn) [(3aR,6S,7aS)-3a,4,5,6,7,7a-hexahydro-1H-4,7-methanoinden-6-yl propanoate]",1.3,Negative,,,,
N#CC(=C1CCCCC1)c1ccccc1 [2-cyclohexylidene-2-phenylacetonitrile],1,Negative,,,,
C/C=C/c1ccc(O)c(OC)c1 [(E)-2-methoxy-4-(prop-1-en-1-yl)phenol],,,4.5,Positive,,
CC1C/C=C/CCCCCCCC(=O)OCC1 (centres unmarked) [(E)-13-methyloxacyclopentadec-10-en-2-one],,,2,Positive,,
"CCC(C)(CCCC(C)C=O)OC (centres unmarked) [6-methoxy-2,6-dimethyloctanal]",,,3,Positive,,
"CC1=CC(C)C(C=O)CC1 (centres unmarked) [2,4-dimethylcyclohex-3-ene-1-carbaldehyde]",1,Negative,,,,
"CCC(C)(O)CCCC(C)C (centres unmarked) [3,7-dimethyloctan-3-ol]",3,Negative,,,,
C/C=C/c1ccc(OC)cc1 [(E)-1-methoxy-4-(prop-1-en-1-yl)benzene],,,4,Positive,,
CC(C)C1CCC(CO)CC1 (centres unmarked) [(4-isopropylcyclohexyl)methanol],,,3,Positive,,
CC1CCC(C(C)C)C(O)C1 (centres unmarked) [2-isopropyl-5-methylcyclohexanol],,,1.2,Positive,,
CC/C=C\CCOC(=O)c1ccccc1 [(Z)-hex-3-en-1-yl benzoate],2,Negative,,,,Low coverage
CCCCCCCC1CCCC(=O)O1 (centres unmarked) [6-heptyltetrahydro-2H-pyran-2-one],,,3,Positive,,
"OCC1COC(Cc2ccccc2)O1 (centres unmarked) [(2-benzyl-1,3-dioxolan-4-yl)methanol]",1,Negative,,,,
"CC(C)=CCCC(C)CCO (centres unmarked) [3,7-dimethyloct-6-en-1-ol]",,,2.5,Positive,,
C=CCOC(=O)CCC1CCCCC1 [prop-2-enyl 3-cyclohexylpropanoate],1.5,Negative,,,,
